According to publication PMC3723878 (PLoS ONE, 2013):
Changes are numbered by the printed parent chain.

What was measured:
Test in all cases: Saturation binding of ^125I-HEAT
[1] = target: T1, human α1A-AR F288A variant (Homo sapiens, UniProt P35348, F288A)
T1 construct: expressed in transfected cells; host or cells: COS-7 (transient, calcium phosphate), membranes
T1 sequence (P35348 1-466 F288A): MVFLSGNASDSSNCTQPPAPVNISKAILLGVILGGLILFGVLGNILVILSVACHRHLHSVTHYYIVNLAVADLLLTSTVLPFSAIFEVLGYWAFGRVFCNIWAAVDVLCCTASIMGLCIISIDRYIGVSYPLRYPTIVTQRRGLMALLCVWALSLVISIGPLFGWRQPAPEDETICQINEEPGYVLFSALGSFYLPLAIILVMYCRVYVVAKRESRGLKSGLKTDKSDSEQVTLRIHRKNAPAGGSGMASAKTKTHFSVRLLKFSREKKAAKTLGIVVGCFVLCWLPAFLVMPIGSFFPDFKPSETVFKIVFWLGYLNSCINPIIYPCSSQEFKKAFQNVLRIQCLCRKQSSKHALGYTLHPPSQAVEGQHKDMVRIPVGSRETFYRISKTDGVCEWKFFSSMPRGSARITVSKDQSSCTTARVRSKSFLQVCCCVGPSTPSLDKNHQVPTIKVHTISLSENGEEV
Source text: (§1) α1A-AR cDNA inserted in the prK5 vector was kindly provided by Michael Brownstein (Craig Venter Institute, Rockville, MD). Point mutations were introduced into the α1A-AR gene by sense and antisense primers (Sigma-Aldrich, St Quentin-Fallavier, France) containing the desired changes, using the QuikChange Site-Directed Mutagenesis kit. The incorporation of each mutation was verified by DNA sequencing.
(§2) CHO cells stably expressing α1-ARs were kindly provided by Dr. Hervé Paris (INSERM U858, Toulouse, France) and were grown in a 50∶50 Dulbecco's Modified Eagle's Medium (DMEM)/Ham's F12 medium supplemented with 10% (v/v) foetal bovine serum (FBS), glutamine (2 mM), penicillin (100 units/ml) and streptomycin (100 µg/ml) at 37°C with 5% CO2. COS-7 cells were grown at 37°C under 5% CO2 in Dulbecco's modified Eagle's medium containing 10% fetal calf serum, 1% penicillin and 1% glutamine (Sigma-Aldrich, St Quentin-Fallavier, France). At 80% confluence, the cells were transfected using a calcium phosphate precipitation method for transient expression of the genetic construct. After 48 h incubation at 37°C, cells were harvested and the membranes were prepared as follow. Cells were washed with ice-cold phosphate buffer and centrifuged at 1700 g for 10 min (4°C). The pellet was suspended in ice-cold buffer (1 mM EDTA, 25 mM sodium phosphate, and 5 mM MgCl2, pH 7.4) and homogenized using an Potter-Elvehjem homogenizer (Fisher Scientific Labosi, Elancourt, France). The homogenate was centrifuged at 1700 g for 15 min (4°C). The sediment was resuspended in buffer, homogenized, and centrifuged at 1700 g for 15 min (4°C). The combined supernatants were centrifuged at 35,000 g for 30 min (4°C), and the pellet was suspended in the same buffer (0.1 ml/dish). […] Cells were grown in a 50∶50 Dulbecco's Modified Eagle's Medium (DMEM)/Ham's F12 medium supplemented with 10% (v/v) foetal bovine serum (FBS), glutamine (2 mM), penicillin (100 units/ml) and streptomycin (100 µg/ml) at 37°C with 5% CO2. Media was changed every 2–3 days and cells were passaged when confluent with 0.05% trypsin and 0.02% EDTA.
(§3) Binding experiments were performed in a 100 µL reaction mix at room temperature in buffer composed of 50 mM Tris-HCl, pH 7.4, 10 mM MgCl2, 1 g/L BSA. Reactions were stopped by filtration through 96 GF/C filter plates pre-incubated with 0.5% polyethylenimine.
(§4) Binding data were analyzed by nonlinear regression using the KaleidaGraph 4.0 software (Synergy software, Reading, PA). pKD values and Bmax (number of binding sites) were determined by applying a nonlinear regression to data obtained with saturation binding assays. The nonlinear regression used was BS = (Bmax*A)/KD+A, where BS is the specific binding, Bmax the number of binding sites, A the concentration of radioligand, and KD the dissociation constant of the radioligand. Data resulting from competition binding assays were analyzed using the Hill equation for IC50 and curve slope estimations. […] The linear curves were analyzed with IC50 = Ki+(L/KD)*Ki. Dissociation kinetics were analyzed using a simple equation of exponential decay BS * exp (-Koff*t), where BS is the specific binding at time zero and Koff is the dissociation rate constant. Results are expressed as mean ± s.e. mean from n independent experiments. One-way Anova test was used to compare values. A p<0.05 was accepted for statistical significance.

[2] = target: T2, human α1A-AR F187A variant (Homo sapiens, UniProt P35348, F187A)
T2 construct: expressed in transfected cells; host or cells: COS-7, transient (calcium phosphate)
T2 sequence (P35348 1-466 F187A): T1 sequence (P35348 1-466 F288A) with F187A, A288F
Source text: as §1, §2, §3, §4

[3] = target: T3, human α1A-AR M292A variant (Homo sapiens, UniProt P35348, M292A)
T3 construct: expressed in transfected cells; host or cells: COS-7 (transient, calcium phosphate), membranes
T3 sequence (P35348 1-466 M292A): T1 sequence (P35348 1-466 F288A) with A288F, M292A
Source text: as §1, §2, §3, §4

What does the source list for `O=C1c2ccccc2CCC1CNCCc1ccc(O)c([125I])c1` (stereo not drawn) [125I-HEAT]?
^125I-HEAT Ratio (loss of affinity relative to WT) ([1]; F288A): 1.3; ^125I-HEAT pKd ([1]; F288A (6.51), saturation binding, n = 3–6): 9.92±0.12; ^125I-HEAT Ratio (loss of affinity relative to WT) ([2]; F187A): 0.22 ^*; ^125I-HEAT pKd ([2]; F187A (5.41), saturation binding, n = 3–6): 10.70±0.01; ^125I-HEAT Ratio (loss of affinity relative to WT) ([3]; M292A): 2.2; ^125I-HEAT pKd ([3]; M292A (6.55), saturation binding, n = 3–6): 9.69±0.09
